Entries after “also recorded” stand apart in the source; their conditions may differ.
Assays:
[1] = four compartment model; Agurell et al. 1986; cited from earlier work
[2] = Possible side effects determined every week by asking the primary caregivers (Table 2); type: in vivo, human
From the text: (§1) Each patient in the this example was diagnosed with "probable" DAT by a neurologist according to DSM III-R and NINCDS-ARDDA criteria. These generally accepted criteria include deficits in two or more areas of cognition, progressive worsening of memory and other cognitive functions, no disturbances of consciousness, and absence of systemic disorders or other brain disease that in and of themselves could account for the progressive deficits in memory and cognition. (McKhann et al., Neurology, 34: 939-944 (1984). Each patient received physical examination and laboratory examination including complete blood count with differential, liver function tests, thyroid function tests including TSH, iron binding capacity, BUN, creatinine, and electrolytes.
(§2) A double blind placebo-controlled crossover design was used with each period of study lasting six weeks. Dronabinol or placebo was administered on a fixed dose schedule, 2.5 mg capsule or identically looking placebo capsule every morning and noon. Subjects were randomly assigned to placebo first or dronabinol first groups. Possible side effects were determined every week by asking the primary caregivers if the patient experienced any of a list of possible symptoms. A list of these symptoms observed in twelve patients over seventy weeks is identified in Table 2 below.

[3] = cited from earlier work
[4] = AIDS patients, after dronabinol treatment; Gorter 1991, Beal 1995; cited from earlier work
[5] = Use of as needed (PRN) psychoactive medication during the study; type: in vivo, human; details: during dronabinol treatment; placebo administration 9.7
From the text: Eleven of the patients were on a psychoactive medication before the beginning of dronabinol study and were maintained on the same medication during the study period. Four patients were receiving regular doses of neuroleptics (perphenazine, thiothixene, haloperidol or thioridazine), 4 patients were receiving regular doses of benzodiazepienes (3 lorazepam and one alprazolam), and 8 patients were receiving regular doses of antidepressants. The antidepressants included sertraline (8 patients), trazodone (4 patients) and desipramine (1 patient). Three patients were on both sertraline and trazodone, and one patient was switched from trazodone to doxepin. Antidepressant treatment was initiated at least 4 weeks before the start of the study and the mean duration of antidepressant treatment before study initiation was 7 months. Eleven patients had orders for psychoactive medications as needed (PRN). These included lorazepam in 4 patients and alprazolam, trazodone, doxepin, haloperidol, perphenazine and thioridazine in one patient each. […]
A double blind placebo-controlled crossover design was used with each period of study lasting six weeks. […] Possible side effects were determined every week by asking the primary caregivers if the patient experienced any of a list of possible symptoms. […]

[6] = Double blind placebo-controlled crossover study: Cohen-Mansfield Agitation Inventory (CMAI), disturbed behavior; type: in vivo, human
From the text: as §1
Eleven of the patients were on a psychoactive medication before the beginning of dronabinol study and were maintained on the same medication during the study period. Four patients were receiving regular doses of neuroleptics (perphenazine, thiothixene, haloperidol or thioridazine), 4 patients were receiving regular doses of benzodiazepienes (3 lorazepam and one alprazolam), and 8 patients were receiving regular doses of antidepressants. The antidepressants included sertraline (8 patients), trazodone (4 patients) and desipramine (1 patient). Three patients were on both sertraline and trazodone, and one patient was switched from trazodone to doxepin. Antidepressant treatment was initiated at least 4 weeks before the start of the study and the mean duration of antidepressant treatment before study initiation was 7 months. Eleven patients had orders for psychoactive medications as needed (PRN). These included lorazepam in 4 patients and alprazolam, trazodone, doxepin, haloperidol, perphenazine and thioridazine in one patient each. The patients received these medications very rarely, on the average 9.7 doses/6 weeks during the placebo administration and 7.2 doses/6 weeks during dronabinol treatment.
as §2
(§3) Baseline measurements were taken the week prior to randomization and treatment initiation. Behavior measures were obtained weekly for the 12 week duration of the trial. Repeated measures on these variables were therefore available for six weeks on dronabinol and six weeks on placebo for each subject.
The disturbed behavior was measured by the Cohen-Mansfield Agitation Inventory (CMAI)(Cohen-Mansfieldet al., J. Gerontol. Med. Sci., 44: M77-84 (1989)) which is a widely used instrument with good psychometric properties. Twenty nine items of this inventory are rated by frequency (from 1=never to 7=constantly or almost constantly) and by disruptiveness (from 1=not at all to 5=extremely). For each observation period, the total score was calculated by multiplying the frequency and disruptiveness of individual items and adding the products. The CMAI items observed are identified in Table 3 below.
(§4) Statistical analysis was performed using Statistix 4.1 (Analytic Software). Repeated measures ANOVA for the 12 weeks of the study was done to test for effects of order, time and treatment on-study variables.

[7] = Double blind placebo-controlled crossover study: Lawton Observed Affect Scale - Past (negative and positive affect); type: in vivo, human
From the text: as §1, §2, §3
Patients' affect was measured using Lawton Observed Affect Scale - Past (Lawton et al., J. Gerontol. [B], 51B: P3-14 (1996)). This scale consists of six items, three measuring positive affect (pleasure, interest and contentment) and three measuring negative affect (anger, anxiety/fear and depression/sadness) on a 5 point scale (from 1=never to 5=more than 3 time a day). The negative and positive affect scores were calculated by adding scores of the appropriate items.
as §4

[8] = 12 patients, 2.5 mg capsule every morning and noon, six weeks
[9] = seventy weeks observed, 2.5 mg capsule every morning and noon
[10] = repeated measures ANOVA, df=1,143
[11] = repeated measures ANOVA, df=5,143, dronabinol/placebo crossover
[12] = decrease during the 12 weeks study period (both phases), df=5,143
[13] = dronabinol first vs placebo first, df=5,143
[14] = repeated measures ANOVA, df=5,143

**Q.** For `CCCCCc1cc(O)c2c(c1)OC(C)(C)[C@@H]1CCC(C)=C[C@@H]21` (relative stereo) [dronabinol, (6aR-trans)-6a,7,8,10a-tetrahydro-6,6,9-trimethyl-3-pentyl-6H-dibenzo[b,d]pyran-1-ol], which Initial half-life [1] is on record?
**A.** four

**Q.** What about the Terminal half-life [1] of the same molecule?
**A.** 25 to 36 h

**Q.** And the “Anxiety/nervousness, percentage of total patients” value [2, 8]?
**A.** 92%

**Q.** What about the “Ataxia, percentage of total patients” value [2, 8] of the same molecule?
**A.** 16%

**Q.** What about the “Depression, percentage of total patients” value [2, 8] of the same molecule?
**A.** 16%

**Q.** What about the “Diarrhea, percentage of total patients” value [2, 8] of the same molecule?
**A.** 16%

**Q.** And the “Emotional lability, percentage of total patients” value [2, 8]?
**A.** 92%

**Q.** What about the “Euphoria, percentage of total patients” value [2, 8] of the same molecule?
**A.** 58%

**Q.** And the “Flushing, percentage of total patients” value [2, 8]?
**A.** 8%

**Q.** What about the “Hallucination, percentage of total patients” value [2, 8] of the same molecule?
**A.** 33%

**Q.** And the “Headache, percentage of total patients” value [2, 8]?
**A.** 8%

**Q.** What about the “Increased confusion, percentage of total patients” value [2, 8] of the same molecule?
**A.** 8%

**Q.** And the “Muscle pain, percentage of total patients” value [2, 8]?
**A.** 16%

**Q.** What about the “Paranoid reaction, percentage of total patients” value [2, 8] of the same molecule?
**A.** 33%

**Q.** And the “Somnolence, percentage of total patients” value [2, 8]?
**A.** 67%

**Q.** What about the “Sweating, percentage of total patients” value [2, 8] of the same molecule?
**A.** 8%

**Q.** And the “Tiredness, percentage of total patients” value [2, 8]?
**A.** 75%

**Q.** And the Incidence of seizure ([2]; dronabinol treated patient)?
**A.** one

**Q.** And the “Euphoria as an adverse reaction, frequency vs placebo” value ([2]; dronabinol treatment vs placebo periods)?
**A.** reported more frequently and in more patients during the dronabinol treatment than during placebo periods

**Q.** And the “Somnolence, frequency vs placebo” value ([2]; patients treated with dronabinol vs patients on placebo)?
**A.** twice as common

**Q.** What about the “Anxiety/nervousness, percentage of weeks” value [2, 9] of the same molecule?
**A.** 53%

**Q.** And the “Ataxia, percentage of weeks” value [2, 9]?
**A.** 8%

**Q.** And the “Depression, percentage of weeks” value [2, 9]?
**A.** 6%

**Q.** And the “Diarrhea, percentage of weeks” value [2, 9]?
**A.** 4%

**Q.** What about the “Emotional lability, percentage of weeks” value [2, 9] of the same molecule?
**A.** 46%

**Q.** And the “Euphoria, percentage of weeks” value [2, 9]?
**A.** 44%

**Q.** And the “Flushing, percentage of weeks” value [2, 9]?
**A.** 3%

**Q.** What about the “Hallucination, percentage of weeks” value [2, 9] of the same molecule?
**A.** 16%

**Q.** What about the “Headache, percentage of weeks” value [2, 9] of the same molecule?
**A.** 1%

**Q.** What about the “Increased confusion, percentage of weeks” value [2, 9] of the same molecule?
**A.** 3%

**Q.** What about the “Muscle pain, percentage of weeks” value [2, 9] of the same molecule?
**A.** 10%

**Q.** What about the “Paranoid reaction, percentage of weeks” value [2, 9] of the same molecule?
**A.** 23%

**Q.** What about the “Somnolence, percentage of weeks” value [2, 9] of the same molecule?
**A.** 41%

**Q.** And the “Sweating, percentage of weeks” value [2, 9]?
**A.** 3%

**Q.** What about the “Tiredness, percentage of weeks” value [2, 9] of the same molecule?
**A.** 36%

**Q.** What about the “Low levels of dronabinol metabolites detected in urine and feces, time” value ([3]; after initiation of a supervised abstinence, Dackis et al. 1982) of the same molecule?
**A.** 2-5 weeks

**Q.** And the “Presence of tetrahydrocannabinol metabolites in the urine, time after ingestion” value ([3]; urine, after ingestion of marijuana, Ellis et al. 1985)?
**A.** ≤ 77 days

**Q.** And the “Mood / sense of well-being” value [4]?
**A.** elevated mood or sense of well-being

**Q.** And the “PRN psychoactive medication doses, average” value [5]?
**A.** 7.2 doses/6 weeks

**Q.** And the “Disturbed behavior (CMAI score), change” value ([6]; during dronabinol treatment, 2.5 mg morning and noon, six weeks)?
**A.** Disturbed behavior decreased during dronabinol treatment

**Q.** And the “Disturbed behavior (CMAI), persistence of decrease” value ([6]; placebo period following treatment with dronabinol)?
**A.** this decrease in disturbed behavior persisted during the placebo period following treatment with dronabinol; also recorded: carried over to the following placebo period

**Q.** And the “CMAI score, F(order×treatment)” value [6, 10]?
**A.** 2.78

**Q.** And the “CMAI score, p for F(order×treatment)” value [6, 10]?
**A.** 0.12

**Q.** What about the “CMAI score as percentage of the baseline, F(order×time)” value [6, 11] of the same molecule?
**A.** 2.35

**Q.** And the “CMAI score as percentage of the baseline, p for order×time interaction” value [6, 11]?
**A.** 0.05

**Q.** And the “Disturbed behavior, difference in the second treatment period” value ([6]; second treatment period of crossover)?
**A.** no difference in the disturbed behavior in the second treatment period

**Q.** What about the “Agitation (CMAI and Observed Affect Scale), change” value ([6]; two scales: CMAI and Observed Affect Scale) of the same molecule?
**A.** Decreased agitation

**Q.** What about the “Negative affect score, F(time)” value [7, 12] of the same molecule?
**A.** 2.46

**Q.** And the “Negative affect score, p for F(time)” value [7, 12]?
**A.** 0.045

**Q.** And the “Positive affect score, change” value ([7]; dronabinol and placebo treatments, six weeks each)?
**A.** positive affect remained similar during both treatments; also recorded: did not change the Positive Affect

**Q.** What about the “Negative affect score, decrease by order of treatment” value ([7]; dronabinol first vs placebo first) of the same molecule?
**A.** the decrease was greater for those who received dronabinol first, compared to those who received placebo first

**Q.** What about the “Negative affect score, F(order×time)” value [7, 13] of the same molecule?
**A.** 5.45

**Q.** And the “Negative affect score, p for F(order×time)” value [7, 13]?
**A.** < 0.0005

**Q.** And the “Negative affect score, change vs placebo periods” value ([7]; on dronabinol vs placebo periods)?
**A.** decreased more while patients were on dronabinol then during the placebo periods

**Q.** What about the “Negative affect score, F(time×treatment)” value [7, 14] of the same molecule?
**A.** 3.98

**Q.** And the “Negative affect score, p for F(time×treatment)” value [7, 14]?
**A.** 0.004

Reference: patent publication US5804592A, “Method for improving disturbed behavior and elevating mood in humans” (Unimed Pharmaceuticals, Inc., priority 1997, dated 1998)
